The results in this text go back to patent US20130102463A1, “Herbicidal Compositions” (BASF SE, priority 2010, published 2013).

For test [1], the system named is fleabane (Erigeron canadiensis, ERICA). In words: Example 2: herbicidal action; whole plants sprayed with A and B in the spraying chamber, high light. The settings on record: rate 10 g/ha (A alone). In kind it is in vivo, Erigeron canadensis.
The test system of test [2] is morningglory (Pharbitis purpurea, PHBPU). Described as above. In kind it is in vivo.
In test [3] the test system is velvet leave (Abutilon theophrasti, ABUTH). Described as above. In kind it is in vivo.
Test [4] concerns fleabane (Erigeron canadiensis). In words: Example 3: herbicidal action; whole plants sprayed with B, component A applied as local leaf treatment, high light. In kind it is in vivo, Erigeron canadensis. To be noted: ERICA.
In test [5] the test system is fleabane (Erigeron canadiensis, ERICA). As to the kind of experiment: Example 1: herbicidal action; whole plants sprayed with B, PPO inhibitor applied as local leaf treatment, high light. In kind it is in vivo, Erigeron canadensis.
Test [6] has as its system moringglory (Pharbitis purpurea, PHBPU). The test is described as above. The settings on record: rate 2000 g/ha (B alone). In kind it is in vivo.
[7] abbreviates: walk-in chamber, 4 DAT, rate 20 g/ha (A alone).
[8] abbreviates: walk-in chamber, 14 DAT, rate 20 g/ha (A alone).
Setting [9] is: 11 DAT, rate 500 g/ha (B alone).
The mark [10] stands for this setting: 10 DAT, rate 1000 g/ha (B alone).
The mark [11] stands for this setting: 42 DAT, rate 1000 g/ha (B alone).
Where [12] appears, read: 5 DAT, rate 1000 g/ha (B alone).
Setting [13] is: 11 DAT, rate 1000 g/ha (B alone).

“And” between values parts separate entries of the source, which are not always exact repeats. Identical values can stand only once.

Take `CCOC(=O)COc1ncccc1Oc1cc(-n2c(=O)cc(C(F)(F)F)n(C)c2=O)c(F)cc1Cl` [A.1.2, ethyl[3-[2-chloro-4-fluoro-5-(1-methyl-6-trifluoromethyl-2,4-dioxo-1,2,3,4-tetrahydropyrimidin-3-yl)phenoxy]-2-pyridyloxy]acetate]: the “% damage” value was determined as 95% in test [1] (walk-in chamber, 4 DAT); 80% in test [1] (walk-in chamber, 14 DAT); 99% in test [2] (walk-in chamber, 4 DAT, rate 0.5 g/ha (A alone)); 96% in test [2] (walk-in chamber, 14 DAT, rate 0.5 g/ha (A alone)).

With `CCOC(=O)C(Cl)Cc1cc(-n2nc(C)n(C(F)F)c2=O)c(F)cc1Cl` (stereo not shown) [A.2.1, carfentrazone-ethyl], the “% damage” value is recorded as 57% in test [1] (growth chamber, 4 DAT); 47% in test [1] (growth chamber, 14 DAT); 94% in test [2] (growth chamber, 4 DAT, rate 0.5 g/ha (A alone)); 83% in test [2] (growth chamber, 14 DAT, rate 0.5 g/ha (A alone)).

Consider `CCOc1cc(Oc2ccc(C(F)(F)F)cc2Cl)ccc1[N+](=O)[O-]` [A.4.1, oxyfluorofen], for which the “% damage” value in test [3] (setting [7]) is 93%; in test [3] (setting [8]), 80%; in test [2] (walk-in chamber, 4 DAT, rate 5 g/ha (A alone)), 94%; in test [2] (setting [7]), 99%; in test [2] (walk-in chamber, 14 DAT, rate 5 g/ha (A alone)) it was 83%; in test [2] (setting [8]) it was 95%.

For the compound `C#CCN1C(=O)COc2cc(F)c(-n3c(=O)n(C)c(=S)n(C)c3=O)cc21` [A.5.1, 3-[7-fluoro-3-oxo-4-(prop-2-ynyl)-3,4-dihydro-2H-benzo[1,4]oxazin-6-yl]-1,5-dimethyl-6-thioxo-[1,3,5]triazinan-2,4-dione], the “% damage” value in test [3] (walk-in chamber, 4 DAT, rate 1 g/ha (A alone)) is 94%; in test [3] (walk-in chamber, 14 DAT, rate 1 g/ha (A alone)), 55%; in test [2] (walk-in chamber, 4 DAT, rate 0.125 g/ha (A alone)) it was 92%; in test [2] (walk-in chamber, 14 DAT, rate 0.125 g/ha (A alone)) it was 70%.

Consider `C#CCN1C(=O)COc2cc(F)c(N3C(=O)C4=C(CCCC4)C3=O)cc21` [A.5.2, flumioxazin], for which the “% damage” value in test [3] (growth chamber, 4 DAT, rate 2 g/ha (A alone)) was determined as 98%; in test [3] (growth chamber, 14 DAT, rate 2 g/ha (A alone)), 98%.

With `CC(C)(C)CC(C)(C)c1cc(Cc2cc(C(C)(C)CC(C)(C)C)cc(-n3nc4ccccc4n3)c2O)c(O)c(-n2nc3ccccc3n2)c1` [B.1.1.1, 2,2-methylenbis-6-(benzotriazol-2-yl)-4-tert-octylphenol], the “% damage” value stood at 0% in test [4] (2 DAT, rate 500 g/ha (B alone)) and 0% in test [4] (8 DAT, rate 500 g/ha (B alone)).

Regarding `CCCCN1C(=O)c2cc3nn(-c4cc(C(C)(C)CC(C)(C)C)cc(C(C)(C)c5ccccc5)c4O)nc3cc2C1=O` [B.1.1.2], the “% damage” value in test [4] (2 DAT, rate 500 g/ha (B alone)) stood at 0%; in test [4] (8 DAT, rate 500 g/ha (B alone)), 0%.

Turning to `CCCCC(CC)COC(=O)C(C#N)=C(c1ccccc1)c1ccccc1` (stereo not shown) [B.1.2.2, 2-cyano-3,3-diphenylacrylic acid-2′-ethylhexyl ester], the “% damage” value in test [5] (7 DAT, rate 500 g/ha (B alone)) was 10%; in test [5] (setting [9]), 10%.

For `CCCCC(CC)COC(=O)C=Cc1ccc(OC)cc1` (stereo not shown) [B.1.5.1, 2-ethylhexyl 4-methoxycinnamate], the “% damage” value in test [4] (2 DAT, rate 500 g/ha (B alone)) is 0%; in test [4] (8 DAT, rate 500 g/ha (B alone)) it was 0%.

Take `CCCCCCOC(=O)c1ccccc1C(=O)c1ccc(N(CC)CC)cc1O` [B.1.6.1, 2-(4-diethylamino-2-hydroxybenzoyl)-benzoic acid hexylester]: the “% damage” value worked out at 0% in test [5] (7 DAT, rate 500 g/ha (B alone)) and 0% in test [5] (setting [9]).

With `O=C(c1ccccc1)c1ccc(O)cc1O` [B.1.6.3, 2,4-dihydroxybenzo-phenone], the “% damage” value in test [5] (setting [10]) is 13%; in test [5] (setting [11]) it was 0%; in test [6] (4 DAT), 39%; in test [6] (10 DAT), 20%.

Turning to `COc1ccc(C(=O)c2ccccc2)c(O)c1` [B.1.6.4, 2-hydroxy-4-methoxybenzophenone], the “% damage” value in test [5] (5 DAT, rate 500 g/ha (B alone)) was determined as 5%; in test [5] (setting [10]), 0%; in test [5] (setting [9]), 5%; in test [5] (setting [11]), 13%; in test [4] (2 DAT, rate 500 g/ha (B alone)) it was 0%; in test [4] (8 DAT, rate 500 g/ha (B alone)), 0%. Besides, the “% damage” value in test [6] (4 DAT) stood at 15%; in test [6] (10 DAT), 10%.

On to `CCN(CC)c1ccc(C(=O)c2ccccc2C(=O)N2CCN(C(=O)c3ccccc3C(=O)c3ccc(N(CC)CC)cc3O)CC2)c(O)c1` [B.1.6.5], for which the “% damage” value in test [4] (2 DAT, rate 500 g/ha (B alone)) came to 0%; in test [4] (8 DAT, rate 500 g/ha (B alone)) it was 0%.

Consider `COc1cc(O)c(C(=O)c2ccccc2)cc1S(=O)(=O)O` [B.1.7.1, 2-hydroxy-4-methoxy-benzophenone-5-sulfonic acid], for which the “% damage” value is 0% in test [4] (2 DAT, rate 500 g/ha (B alone)) and 0% in test [4] (8 DAT, rate 500 g/ha (B alone)).

Consider `CCCCC(CC)COC(=O)c1ccc(Nc2nc(Nc3ccc(C(=O)OCC(CC)CCCC)cc3)nc(Nc3ccc(C(=O)OCC(CC)CCCC)cc3)n2)cc1` (stereo not shown) [B.1.11.1, 2,4,6-trinanilino-p-(carbo-2′-ethyl-hexyl-1′-oxy)-1,3,5-triazine], for which the “% damage” value is on record as 0% in test [4] (2 DAT, rate 500 g/ha (B alone)) and 0% in test [4] (8 DAT, rate 500 g/ha (B alone)).

For `CNC(=O)c1ccc(Nc2nc(NC)nc(Nc3ccc(/C=C/c4ccc(Nc5nc(NC)nc(Nc6ccc(C(=O)NC)cc6)n5)cc4S(=O)(=O)[O-])c(S(=O)(=O)[O-])c3)n2)cc1.[Na+].[Na+]` [B.1.16.1], the “% damage” value worked out at 0% in test [4] (2 DAT, rate 500 g/ha (B alone)) and 0% in test [4] (8 DAT, rate 500 g/ha (B alone)).

As to `CCOC(=O)C(C#N)=C1C=C(NC(C)CC)CC(C)(C)C1` (stereo not shown) [B.1.17.1, 2-cyano-2-[5,5-dimethyl-3-[(1-methylpropyl)amino]-2-cyclohexen-1-ylidene]-acetic acid ethyl ester], the “% damage” value in test [4] (2 DAT, rate 500 g/ha (B alone)) came to 0%; in test [4] (2 DAT, rate 1000 g/ha (B alone)), 0%; in test [4] (8 DAT, rate 500 g/ha (B alone)), 0%; in test [4] (8 DAT, rate 1000 g/ha (B alone)), 0%.

Regarding `CC(C)c1cccc(C(C)C)c1N1C(=O)c2cccc3c(Oc4ccc(C(C)(C)CC(C)(C)C)cc4)ccc(c23)C1=O` [B.1.18.1, 2-[2,6-bis(1-methylethyl)phenyl]-6-[4-(1,1,3,3-tetramethylbutyl)phenoxy]-1H-benz[de]isoquinoline-1,3(2H)-dione], the “% damage” value in test [4] (2 DAT, rate 500 g/ha (B alone)) was 0%; in test [4] (8 DAT, rate 500 g/ha (B alone)), 0%.

As for `CCCOC(=O)c1cc(O)c(=O)c2c(O)c(O)ccc2c1` [B.1.19.1, 3,4,6-trihydroxy-5-oxo-5H-benzocycloheptene-8-carboxylic acid propyl ester], the “% damage” value stood at 0% in test [4] (2 DAT, rate 250 g/ha (B alone)); 0% in test [4] (2 DAT, rate 500 g/ha (B alone)); 0% in test [4] (8 DAT, rate 250 g/ha (B alone)); 0% in test [4] (8 DAT, rate 500 g/ha (B alone)).

For `Cc1c(C)c2c(c(C)c1O)CC[C@@](C)(CCC[C@H](C)CCC[C@H](C)CCCC(C)C)O2` [B.3.4.1, α-tocopherol], the “% damage” value in test [5] (5 DAT, rate 7000 g/ha (B alone)) stood at 0%; in test [5] (11 DAT, rate 7000 g/ha (B alone)) it was 0%.

As for `c1ccc(Nc2ccccc2)cc1` [B.3.19.1, diphenylamine], the “% damage” value in test [5] (setting [12]) and in test [5] (setting [13]) was 0% each time.

As for `Oc1ccc(C=Cc2cc(O)cc(O)c2)cc1` [B.3.27.1, resveratrol], the “% damage” value in test [5] (setting [12]) is on record as 10%; in test [5] (setting [13]) it was 0%.

Consider `CC1=CC(=O)CC(C)(C)[C@@]1(O)/C=C/C(C)=C\C(=O)O` [B.3.28.1, abscisic acid], for which the “% damage” value in test [5] (setting [12]) is on record as 1%; in test [5] (setting [13]) it was 0%.

With `CCCOC(=O)c1cc(O)c(O)c(O)c1` [B.3.29.1, n-propylgallate], the “% damage” value in test [5] (setting [12]) is 0% and 5%; in test [5] (setting [13]), 0% and 8%.
